Here are results for 3 molecules from US20020183332A1, “USE OF CYAMEMAZINE IN THE TREATMENT OF ABRUPT BENZODIAZEPHINE WITHDRAWAL” (priority 1999, published 2002).

Assay [1] concerns patients treated with benzodiazepines for 3 months or more and requiring benzodiazepine withdrawal. As to the kind of experiment: randomized double-blind clinical trial: abrupt benzodiazepine withdrawal with cyamemazine substitution versus gradual withdrawal with bromazepam. The format is in vivo. The note with it: for patients in whom the withdrawal is still a success: after 6 months; for patients in whom the treatment is successful: after 6 weeks of study, benzodiazepine withdrawal, 168 patients.

The test system of another assay is alcohol uptake in rats. The note with it: NAASILA et al. 1998; cited from earlier work.
The subject of assay [2] is benzodiazepine withdrawal syndrome. The settings on record: LADER et al. 1987, SCHWEIZER et al. 1998; cited from earlier work.

Regarding `O=C1CN=C(c2ccccn2)c2cc(Br)ccc2N1` [bromazepam], in assay [1], the “patients in whom the withdrawal is still a success” value amounted to 75% and the “patients in whom the treatment is successful” value is recorded as 85%.
As to `CC(CN(C)C)CN1c2ccccc2Sc2ccc(C#N)cc21` (stereo not shown) [cyamemazine], the “maximum amplitude of the anxiety rebound” value in assay [1] (HARS scale (HAMILTON anxiety scale), cyamemazine group versus bromazepam group) was “no significant difference”. The “frequency of occurrence of a withdrawal syndrome” value in assay [1] (RICKELS withdrawal scale, cyamemazine group versus bromazepam group) is recorded as “no significant difference”. For the same molecule, the “maximum amplitude of the anxiety rebound” value in assay [1] (ZUNG anxiety scale, cyamemazine group versus bromazepam group) was “no significant difference”. Moreover, in assay [1], the “patients in whom the withdrawal is still a success” value is reported as 90% and the “patients in whom the treatment is successful” value was determined as 95%. The “percentage of patients exhibiting an anxiety rebound” value in assay [1] (cyamemazine group versus bromazepam group) is on record as “no significant difference”. In addition, in the assay with alcohol uptake in rats, the “action on alcohol uptake” value is on record as “decrease of alcohol uptake”.
As to `O=C1CC2(CCCC2)CC(=O)N1CCCCN1CCN(c2ncccn2)CC1` [buspirone], the “effect on the withdrawal syndrome” value in assay [2] is given as “not shown any significant effect”.
